According to ChEMBL document CHEMBL3885881, “DrugMatrix”:

Organism: Rattus norvegicus
Test: DrugMatrix - Regimen: Daily Repeat
Assay type: toxicity, organism-based, Sprague-Dawley
Set-up: regimen Daily Repeat, gender Male, age 6-8 weeks
Settings: in vivo, sc, route subcutaneous, […]; for BASOPHIL / EOSINOPHIL / ERYTHROCYTE COUNT / HEMATOCRIT / HEMOGLOBIN / LEUKOCYTE COUNT / LYMPHOCYTE / MEAN CORPUSCULAR HEMOGLOBIN / MEAN CORPUSCULAR HEMOGLOBIN CONCENTRATION / MEAN CORPUSCULAR VOLUME / MONOCYTE / NEUTROPHIL / PLATELET COUNT: tissue Blood; for ALANINE AMINOTRANSFERASE / ALBUMIN / ALKALINE PHOSPHATASE / ASPARTATE AMINOTRANSFERASE / BLOOD UREA NITROGEN / CARBON DIOXIDE / CHLORIDE / CHOLESTEROL / CREATININE / GLUCOSE / LACTATE DEHYDROGENASE / LIPASE / PHOSPHORUS / POTASSIUM / TOTAL BILIRUBIN / TOTAL PROTEIN / URIC ACID: tissue Plasma
[1] = 4 mg/kg, 72 h, dose level Low, time 3 day
[2] = 4 mg/kg, 120 h, dose level Low, time 5 day
[3] = 36 mg/kg, 72 h, dose level High, time 3 day
[4] = 36 mg/kg, 120 h, dose level High, time 5 day

## Nc1c2ccccc2nc2ccccc12 [AMINACRINE]
[1]
  BASOPHIL: 0%
  EOSINOPHIL: 0.67%
  ERYTHROCYTE COUNT: 6.9 x10E6/uL
  HEMATOCRIT: 42.07%
  HEMOGLOBIN: 14.07 G/DL
  LEUKOCYTE COUNT: 11.4 x10E3/uL
  LYMPHOCYTE: 65.33%
  MEAN CORPUSCULAR HEMOGLOBIN: 20.43 pg
  MEAN CORPUSCULAR HEMOGLOBIN CONCENTRATION: 33.4 G/DL
  MEAN CORPUSCULAR VOLUME: 61.1 fL
  MONOCYTE: 8.67%
  NEUTROPHIL: 25.67%
  PLATELET COUNT: 1093.67 x10E3/uL
  ALANINE AMINOTRANSFERASE: 44 u/L
  ALBUMIN: 3.9 G/DL
  ALKALINE PHOSPHATASE: 311.67 u/L
  ASPARTATE AMINOTRANSFERASE: 81 u/L
  BLOOD UREA NITROGEN: 14.67 mg/dL
  CARBON DIOXIDE: 22.33 mmol/L
  CHLORIDE: 106 MEQ/L
  CHOLESTEROL: 68.33 mg/dL
  CREATININE: 0.3 mg/dL
  GLUCOSE: 144.67 mg/dL
  LACTATE DEHYDROGENASE: 297.67 u/L
  LIPASE: 8.67 u/L
  PHOSPHORUS: 9.93 mg/dL
  POTASSIUM: 5.93 MEQ/L
  TOTAL BILIRUBIN: 0.1 mg/dL
  TOTAL PROTEIN: 6 G/DL
  URIC ACID: 0.93 mg/dL
[2]
  BASOPHIL: 0.33%
  EOSINOPHIL: 0%
  ERYTHROCYTE COUNT: 6.82 x10E6/uL
  HEMATOCRIT: 42.2%
  HEMOGLOBIN: 13.8 G/DL
  LEUKOCYTE COUNT: 13.23 x10E3/uL
  LYMPHOCYTE: 62%
  MEAN CORPUSCULAR HEMOGLOBIN: 20.2 pg
  MEAN CORPUSCULAR HEMOGLOBIN CONCENTRATION: 32.67 G/DL
  MEAN CORPUSCULAR VOLUME: 61.87 fL
  MONOCYTE: 3%
  NEUTROPHIL: 34.33%
  PLATELET COUNT: 1028 x10E3/uL
  ALANINE AMINOTRANSFERASE: 47 u/L
  ALBUMIN: 3.4 G/DL
  ALKALINE PHOSPHATASE: 316 u/L
  ASPARTATE AMINOTRANSFERASE: 78.33 u/L
  BLOOD UREA NITROGEN: 17.33 mg/dL
  CARBON DIOXIDE: 22.67 mmol/L
  CHLORIDE: 100.33 MEQ/L
  CHOLESTEROL: 66.33 mg/dL
  CREATININE: 0.3 mg/dL
  GLUCOSE: 141.67 mg/dL
  LACTATE DEHYDROGENASE: 188.67 u/L
  LIPASE: 8 u/L
  PHOSPHORUS: 9.9 mg/dL
  POTASSIUM: 5.47 MEQ/L
  TOTAL BILIRUBIN: 0.1 mg/dL
  TOTAL PROTEIN: 6.13 G/DL
  URIC ACID: 0.9 mg/dL
[3]
  BASOPHIL: 0.33%
  EOSINOPHIL: 0.33%
  ERYTHROCYTE COUNT: 6.95 x10E6/uL
  HEMATOCRIT: 42.07%
  HEMOGLOBIN: 14.1 G/DL
  LEUKOCYTE COUNT: 8.8 x10E3/uL
  LYMPHOCYTE: 76%
  MEAN CORPUSCULAR HEMOGLOBIN: 20.3 pg
  MEAN CORPUSCULAR HEMOGLOBIN CONCENTRATION: 33.47 G/DL
  MEAN CORPUSCULAR VOLUME: 60.57 fL
  MONOCYTE: 3%
  NEUTROPHIL: 20.33%
  PLATELET COUNT: 1177.67 x10E3/uL
  ALANINE AMINOTRANSFERASE: 44.33 u/L
  ALBUMIN: 3.27 G/DL
  ALKALINE PHOSPHATASE: 226.33 u/L
  ASPARTATE AMINOTRANSFERASE: 101.67 u/L
  BLOOD UREA NITROGEN: 17 mg/dL
  CARBON DIOXIDE: 22 mmol/L
  CHLORIDE: 106 MEQ/L
  CHOLESTEROL: 62 mg/dL
  CREATININE: 0.3 mg/dL
  GLUCOSE: 151 mg/dL
  LACTATE DEHYDROGENASE: 142.33 u/L
  LIPASE: 7.67 u/L
  PHOSPHORUS: 9.3 mg/dL
  POTASSIUM: 6 MEQ/L
  TOTAL BILIRUBIN: 0.1 mg/dL
  TOTAL PROTEIN: 6.07 G/DL
  URIC ACID: 1.17 mg/dL
[4]
  BASOPHIL: 0%
  EOSINOPHIL: 0%
  ERYTHROCYTE COUNT: 6.75 x10E6/uL
  HEMATOCRIT: 41.37%
  HEMOGLOBIN: 13.1 G/DL
  LEUKOCYTE COUNT: 11.17 x10E3/uL
  LYMPHOCYTE: 59.67%
  MEAN CORPUSCULAR HEMOGLOBIN: 19.43 pg
  MEAN CORPUSCULAR HEMOGLOBIN CONCENTRATION: 31.73 G/DL
  MEAN CORPUSCULAR VOLUME: 61.3 fL
  MONOCYTE: 4.33%
  NEUTROPHIL: 35.67%
  PLATELET COUNT: 1310.67 x10E3/uL
  ALANINE AMINOTRANSFERASE: 40.67 u/L
  ALBUMIN: 2.83 G/DL
  ALKALINE PHOSPHATASE: 304.33 u/L
  ASPARTATE AMINOTRANSFERASE: 111 u/L
  BLOOD UREA NITROGEN: 17.33 mg/dL
  CARBON DIOXIDE: 22 mmol/L
  CHLORIDE: 101.67 MEQ/L
  CHOLESTEROL: 48 mg/dL
  CREATININE: 0.3 mg/dL
  GLUCOSE: 157.67 mg/dL
  LACTATE DEHYDROGENASE: 113.33 u/L
  LIPASE: 7 u/L
  PHOSPHORUS: 9 mg/dL
  POTASSIUM: 5.17 MEQ/L
  TOTAL BILIRUBIN: 0.1 mg/dL
  TOTAL PROTEIN: 5.5 G/DL
  URIC ACID: 0.97 mg/dL
